Test results as given in article PMC10055926.
“Also recorded” adds a separate entry of the source.

Tested on: SARS-CoV-2 Omicron variant (B.1.1.529-BA.1)
Type: cell-based
Settings: up to 20 µM; Omicron B.1.1.529-BA.1

## C[C@H](NC(=O)[C@H](Cc1ccc(O)cc1)NC(=O)OCc1ccccc1)C(=O)C=[N+]=[N-]
  inhibitory activity against SARS-CoV-2 Omicron in HNEC ALI cultures (in words): no inhibitory activity; also recorded: unable to block entry
